Assay results: EP3833345B1, “SMALL MOLECULE-INHIBITORS OF 6-PHOSPHOFRUCTO-1-KINASE FOR REDUCING LACTATE GENERATION BY CANCER CELLS” (Kemijski Institut, priority 2018, dated 2020)

Legend:
Jurkat cells = assay: lactate excretion by Jurkat cells (enzymatic L-lactic acid kit); assay type: cell-based, human; details: preliminary test, 100 µM inhibitor, followed for 48 hours, versus DMSO control
Protocol: The cells were incubated in 1 mL volume (24 well plates) at 5% CO2 and 37°C. The inhibitors were added in 100 µM concentration. As a control, equivalent amount of DMSO as used for the addition of inhibitors was supplemented to the medium. The tests started with 1×10^5 cells per mL. Extracellular lactate excreted by the Jurkat cells was measured in the supernatant of the growth medium after the cells were removed by centrifugation at 1500 rpm for 5 minutes. Lactate concentration was determined enzymatically using L-Lactatic acid kit (K-LATE, Megazyme, Ireland).
Measurements of lactate excretion in the tumorigenic Jurkat cells and the cells treated with two selected inhibitors at different concentrations were repeated by more detailed measurements. The growth conditions were identical to those described in Experiment 2. No significant difference in lactate excretion could be observed by the treated and untreated cells during the initial stage of growth that lasted for approximately 12 hours. Later on lactate excretion by the Jurkat cells ceased in the presence of both inhibitors.

[1] = target: T1, modified (47 kDa) 6-phosphofructo-1-kinase (PFK-M), sfPFK-M fragments (Homo sapiens, UniProt P08237); assay: in vitro inhibition of purified recombinant modified (cancer-specific) PFK-M fragments; details: native and modified PFK-M not distinguished
T1 sequence (P08237 1-443 limits assumed): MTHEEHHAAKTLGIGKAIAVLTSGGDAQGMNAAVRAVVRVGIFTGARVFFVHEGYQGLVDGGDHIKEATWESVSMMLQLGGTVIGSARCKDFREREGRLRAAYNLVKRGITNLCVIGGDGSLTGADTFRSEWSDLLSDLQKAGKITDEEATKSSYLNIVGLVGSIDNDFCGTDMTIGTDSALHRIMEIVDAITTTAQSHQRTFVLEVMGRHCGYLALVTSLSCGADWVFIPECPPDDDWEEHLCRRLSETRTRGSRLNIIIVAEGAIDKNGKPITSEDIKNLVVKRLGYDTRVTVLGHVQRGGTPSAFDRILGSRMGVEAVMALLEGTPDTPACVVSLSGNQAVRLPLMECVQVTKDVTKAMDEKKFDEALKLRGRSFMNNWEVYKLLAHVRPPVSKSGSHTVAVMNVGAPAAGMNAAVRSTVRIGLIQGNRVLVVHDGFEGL
Protocol: Initially, all compounds were tested in vitro for inhibition of the purified human native enzyme (85 kDa) and modified cancer-specific shorter fragments (47 kDa) of muscle type PFK-M, followed by measurements of the purified native enzyme (85 kDa) and shorter fragments (70 kDa) of liver type PFK-L isoform.
Selected compounds were tested for in vitro inhibition of isolated recombinant human native and modified PFK-M enzymes.
The yeast transformant encoding the native human PFK-M enzyme was designated as nPFKM strain while transformant encoding cancer specific shorter fragments was designated as sfPFKM strain. […] For the enzymatic measurements, all the substrates (F6P and ATP), auxiliary enzymes, NADH and inhibitors dissolved in DMSO were added first to the buffer with PEG. After thorough mixing of the buffer with all ingredients, the enzymatic reaction started by the insertion of the purified recombinant enzymes.

In the case of `CNC(=O)c1nc(CN2CCc3onc(-c4ccccc4F)c3C2)no1` [Inhibitor No. 13, 3-{[3-(2-fluorophenyl)-6,7-dihydroisoxazolo[4,5-c]pyridin-5(4H)-yl]methyl}-N-methyl-1,2,4-oxadiazole-5-carboxamide], the “lactate excretion by the Jurkat cells” value (Jurkat cells) is reported as “Less efficient reduction of lactate overflow” and the “in vitro PFK-M inhibition” value [1] is reported as “no in vitro PFK-M inhibition could be detected”.

`CNC(=O)c1nc(CN2CCc3onc(-c4cccc(F)c4)c3C2)no1` [Inhibitor No. 11, 3-{[3-(3-fluorophenyl)-6,7-dihydroisoxazolo[4,5-c]pyridin-5(4H)-yl]methyl}-N-methyl-1,2,4-oxadiazole-5-carboxamide] was tested, and the “lactate excretion by the Jurkat cells” value (Jurkat cells) was “Less efficient reduction of lactate overflow” and the “in vitro PFK-M inhibition” value [1] was “no in vitro PFK-M inhibition could be detected”.

In the case of `Cc1ccc(-c2cccc(-c3ccn(Cc4nnc(C)o4)n3)c2)nn1` [Inhibitor No. 14], the “lactate excretion by the Jurkat cells” value (Jurkat cells) is reported as “Less efficient reduction of lactate overflow” and the “in vitro PFK-M inhibition” value [1] is reported as “no in vitro PFK-M inhibition could be detected”.

`Cc1nnc(COC(=O)c2ccc3noc(-c4ccccc4)c3c2)o1` [Inhibitor No. 8, (5-methyl-1 ,3,4-oxadiazol-2-yl)methyl 3-phenyl-2,1-benzoxazole-5-carboxylate] was tested, and the “lactate excretion by the Jurkat cells” value (Jurkat cells) was “Less efficient reduction of lactate overflow” and the “in vitro PFK-M inhibition” value [1] was “no in vitro PFK-M inhibition could be detected”.
